Results on two compounds are retold here after patent US4820828A, “Cinnamohydroxamic acids” (Ortho Pharmaceutical Corporation, priority 1987, dated 1989).

As usually defined, the inhibition is the share of the control response that was lost under treatment. A higher inhibition goes with strong suppression. What is called IC50 is the point on the concentration scale where inhibition reaches its midpoint. The low end stands for greater potency in that assay, the high end for weaker potency in that assay.

Like-named read-outs stand apart in the source and are kept apart here.

In test [1] the test system is Arachidonate Induced Bronchospasm. Briefly: Pulmonary mechanics assay: inhibition of arachidonate induced bronchospasm in anesthetized guinea pigs. It is filed as in vivo, guinea pig (male Hartley). The conditions noted are these: Cavia porcellus, guinea pig, % inhibition of control; for inhibition in vivo at 10 mg/kg: dose 10 mg/kg ID; for inhibition in vivo at 25 mg/kg: dose 25 mg/kg ID. As to the method: The bronchodilating activity of the compounds was tested in a pulmonary mechanics assay. Basically, male Hartley guinea pigs (~400-500 g) were anesthetized with urethane (2 g/kg, i.p.) and placed in a whole body plethysmograph. Cannulations of a jugular vein and carotid artery were performed for compound administration and monitoring blood presure, respectively. The trachea was cannulated for respiration at a constant volume via a miniature starling pump. A Validyne differential pressure transducer (±20 cm H2 O) sensed transpleural pressure via a 15 gauge needle inserted into the pleural cavity and a sidearm from the tracheal cannula. Tidal volume was sensed by another Validyne differential pressure transducer (±2 cm H2 O) from pressure changes inside the plethysmograph. An on-line Buxco pulmonary mechanics computer calculated air flow, dynamic lung compliance and lung resistance. The values were recorded on a print-out.
The guinea pigs were pretreated with succinyl choline (1.2 mg/kg, i.v.) to arrest spontaneous respiration. A control challenge of arachidonic acid (0.5-1.0 mg/kg, i.v.) was administered, and the animals were then dosed with the test compound by various routes. At least 10 minutes were allowed to expire between arachidonic acid challenges. A second challenge was given and compared to the control response. This comparison was indicative of cyclooxygenase inhibition. Indomethacin (10 mg/kg, i.v.) was administered immediately after the second challenge. A third challenge of a higher dose of arachidonic acid (5-10 mg/kg, i.v.) was given. This response was induced by SRS-A and compared to the responses elicited by a separate control group of animals. Activity was indicative of lipoxygenase inhibition. Propranolol (0.005 mg/kg, i.v.) may be given prior to the third challenge to enhance the response to SRS-A.
Bronchoconstriction induced by arachidonic acid with or without indomethacin was expressed as maximum percent change in dynamic lung compliance (Cdyn) and maximum percent increase in lung resistance (RL). Each guinea pig served as its own control for cyclooxygenase evaluation, while a treated group was compared to a control group for lipoxygenase evaluation. The results are shown in Table II and are expressed as the percent inhibition of control.

The next test deals with T1, 5-lipoxygenase (Rattus norvegicus, UniProt P12527).
T1 construct: The cell-free homogenate was prepared by sonication of the cells followed by centrifugation at 40,000 xg; endogenous in cells; host or cells: RBL-1 (rat basophilic leukemia) cells, 40,000 xg supernatant of the sonicated homogenate
T1 sequence (P12527 1-673): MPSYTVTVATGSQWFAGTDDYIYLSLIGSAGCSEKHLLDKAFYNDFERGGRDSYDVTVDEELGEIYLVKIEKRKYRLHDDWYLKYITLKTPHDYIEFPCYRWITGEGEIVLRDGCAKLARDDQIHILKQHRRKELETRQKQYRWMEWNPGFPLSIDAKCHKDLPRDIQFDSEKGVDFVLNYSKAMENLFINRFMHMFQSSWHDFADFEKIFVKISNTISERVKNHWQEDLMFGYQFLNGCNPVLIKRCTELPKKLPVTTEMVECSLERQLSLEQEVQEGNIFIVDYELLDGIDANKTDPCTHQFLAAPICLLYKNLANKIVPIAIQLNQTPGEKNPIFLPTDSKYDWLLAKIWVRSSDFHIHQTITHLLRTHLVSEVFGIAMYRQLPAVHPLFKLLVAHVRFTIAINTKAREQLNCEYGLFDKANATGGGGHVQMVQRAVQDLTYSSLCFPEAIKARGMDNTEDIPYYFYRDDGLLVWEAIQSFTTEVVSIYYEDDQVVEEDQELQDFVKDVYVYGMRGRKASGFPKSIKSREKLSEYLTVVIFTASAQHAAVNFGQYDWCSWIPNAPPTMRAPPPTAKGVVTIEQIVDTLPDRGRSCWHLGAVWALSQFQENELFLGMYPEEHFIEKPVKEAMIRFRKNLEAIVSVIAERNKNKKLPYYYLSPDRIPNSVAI
Briefly: Inhibition of 5-lipoxygenase in a cell-free homogenate of RBL-1 cells (production of lipoxygenase products from 14C-arachidonic acid). It is filed as biochemical. The conditions noted are these: rat RBL-1 40,000 xg supernatant. As to the method:
The inhibition of 5-lipoxygenase was tested in a cell-free homogenate by the procedure of Jakschik, B. et al., Biochem.Biophys.Res.Comm. 95, 103 (1980). Basically, rat basophilic leukemia cells (RBL-1 cells) were maintained in culture in a suitable medium, and were collected by centrifugation prior to assay. The cell-free homogenate was prepared by sonication of the cells followed by centrifugation at 40,000 xg. The CaCl2 dependent production of lipoxygenase products from ^14 C-arachidonic acid in the 40,000 xg supernatant was monitored in the presence of buffer (or other vehicle) or drug. Products were isolated by acidification and extraction, followed by thin layer chromatography. Radioactive areas corresponding to authentic lipoxygenase products were quantitated by liquid scintillation counting. Data was reported as the IC50, the concentration causing 50% inhibition of the generation of lipoxygenase products. The results are shown in Table II as the percent inhibition at 3 μM or the amount of compound necessary to cause 50% inhibition.

The mark [2] stands for this setting: iv, with indomethacin (10 mg/kg, i.v.), read-out: Bronchodilating Activity, % Inhibition of Arachidonate Induced Bronchospasm, with Indomethacin.
[3] abbreviates: without indomethacin, read-out: Bronchodilating Activity, % Inhibition of Arachidonate Induced Bronchospasm, without Indomethacin.

As to `COc1ccc(/C=C/C(=O)NO)cc1OC` [Example 6, 3,4-Dimethoxycinnamohydroxamic acid], the results for the inhibition in vivo at 10 mg/kg in test [1] (setting [2]) and in test [1] (setting [3]) were 61% and 77%, respectively. Moreover, the inhibition at 3 µM against 5-lipoxygenase is 17%.
As for `COc1ccc(/C=C/C(=O)N(C)O)c(OC)c1` [Example 20, 2,4-Dimethoxy-N--methylcinnamohydroxamic acid], the inhibition in vivo at 25 mg/kg in test [1] (setting [2]) and in test [1] (setting [3]) was 46% throughout. Moreover, the inhibition at 3 µM at 5-lipoxygenase worked out at 100%. The compound also displayed an IC50 on 5-lipoxygenase (50% inhibition of lipoxygenase product generation) of 0.43 µM.
